Test results reported in patent publication US20130005802A1, “TREATMENT OF WNT/FRIZZLED-RELATED DISEASES” (priority 2009, published 2013).
Like-named read-outs stand apart in the source and are kept apart here.

What was measured:
Frizzled1-GFP = Frizzled1-GFP (Rattus norvegicus, UniProt Q08463); test: Image-based Frizzled1-GFP internalization assay (primary screening assay) in Fzd1GFP-U2OS cells; assay type: cell-based; conditions: 6 hr, 0.47-7.5 μM tested
Protocol: To obtain a Frizzled1-GFP stable cell line (Fzd1GFP-U2OS), U2OS cells were transfected with pCS2ratFrizzled1-GFP and pLKO.1 (10:1 ratio by weight), using the Nucleofection transfection protocol from Amaxa, and stable receptor expressing clones were selected using 1.5 μg/mL puromycin in the culture medium. For generating TOPFlash stable cell lines, HEK293 cells were transfected with p8xTOPFlash, the Renilla luciferase plasmid, and pLKO.1 at a ratio by weight of 10:3:1 and stable clones selected using 1 μg/mL puromycin in the growth medium. pLKO.1 was used to confer puromycin resistance to the stable clones.
The plates were incubated overnight at 37° C. in 5% CO2. […]
To measure the number of the internalized vesicles per cell, cytosol was carefully traced to exclude cell membrane. […] The number of internalized vesicles per cell was counted by the Metamorph software. More than 30 cells per sample were analyzed to obtain statistical significance. […]
To determine the time-course of internalization for Frizzled1-GFP receptors, the accumulation of cytosolic puncta/vesicles was measured (FIG. 4A-4E). Internalization was assessed by counting the number of Frizzled1-GFP containing vesicles in the cytosol using the computer program Metamorph, and the results are presented in the graph for the given times (0 hr, n=51 cells; 1 hr, n=69; 2 hr, n=32; 4 hr, n=55, and 6 hr, n=61). […]

Dishevelled-2 = test: Immunoblot of endogenous cytosolic Dishevelled-2 in U2OS cells; assay type: cell-based; conditions: 1-7.5 μM, read-out: half maximal reduction of Dishevelled-2
Description: After treatment, cytosolic fraction as well as cellular membrane were isolated as described (Mikels, A. J., et al. PLoS Biol 2006, 4, e115, incorporated herein by reference in its entirety). Immunoblots using β-catenin or Dishevelled-2 antibody were used to detect the respective protein levels in cytosol or on membrane, with β-actin immunoblots used for loading controls.
Dishevelled proteins (Dishevelled-1, 2, and 3 in mammalian cells) are intracellular molecules transducing Frizzled signaling.

HT29 cells = test: MTT assay, HT29; assay type: cell-based
Protocol: (§1) AsPC-1 tumor cells were cultured with T cells at a 1:5 ratio for 7 days in the presence of MEDI-565 or Cont BiTE (100 ng/mL). On day 7, floating cells were discarded and only adherent AsPC-1 cells were harvested with 0.05% trypsin/EDTA and washed with PBS three times. 1×10^4 AsPC-1 tumor cells were added to each well of 96 well flat bottom plates in 200 μL of complete RPMI1640 medium. The cells were allowed to adhere to the plates overnight at 37° C. (day 0) and were further incubated for 1, 2, 4 or 7 days. 20 μL of 10×MTT (3-[4,5-dimethylthiazol-2-yl]-2,5-diphenyl-tetrazolium bromide, 5 mg/mL) solution was added to each well, and incubated at 37° C. for 2 hr. The adherent cells were lysed with 150 μL of dimethyl sulfoxide (DMSO) and the optical density (OD) at 550 nm was measured.
(§2) Colorectal cancer cell lines were incubated in 96-well flat-bottomed plates at 5,000 cells per well in 200 μL of complete RPMI1640 medium. The cells were allowed to adhere to the plates overnight at 37° C. (day 0). […] Then 20 μL of 10×MTT solution was added to each well and incubated at 37° C. for 2 hr. The adherent cells were lysed with 150 μL of DMSO, and then optical density (OD) at 562 nm was measured. DMSO or culture medium was used as a control.
(§3) MTT assay was performed at each time point.

CaCO2 cells = test: MTT assay, CaCO2; assay type: cell-based; conditions: for IC50: Homo sapiens, Caco-2, 72 h
Protocol: as §1, §2, §3
An MTT assay was performed after 72 hr incubation. After cell lysis with DMSO, the optical density (OD) at 562 nm was measured.

CRC119 tumor cells = test: Flow-based cytotoxicity assay (annexin V), CRC119; assay type: cell-based; conditions: 3 days, 0.2-20 μM
Protocol: After 3 days incubation, all cells were harvested with 0.05% trypsin/EDTA and spun down by centrifugation. Cells were labeled with biotin-conjugated Annexin V, and then stained with 7-AAD and Streptavidin-APC. Samples were acquired by FACSCalibur machine (BD Bioscience) and analyzed with CellQuest software. Cells were analyzed for expression of Annexin V as a marker of apoptosis.
Annexin V may be used as a marker for apoptosis and other forms of cell death. […] After 3 days of incubation, all cells were harvested with 0.05% trypsin/EDTA, labeled with biotin-conjugated Annexin V, and then stained with 7-AAD and streptavidin-APC. Samples were acquired by FACSCalibur, and percentages of annexin V-positive cells were analyzed and plotted as shown in FIG. 11. Cells were analyzed for expression of Annexin V as a marker of apoptosis.

in vivo = conditions: NOD/SCID, mouse, po, 200 mg/kg
Protocol: Blood samples were obtained from vena cava following euthanasia by ketamin injection at predose and at 0.25, 0.5, 0.75, 1, 1.5, 4, 8, 12, 24 hr after drug administration. Blood samples were put into eppendorf tubes containing 10 μL of heparin (1000 U/mL), centrifuged at 1,200 g for 10 min. Plasma were collected and frozen at −20° C. until HPLC analysis.
The Calibration curve was linear from 0.2 ng/mL (lower limit of quantitation, LLOQ) to 300 ng/mL.
Blood samples were obtained from vena cava at predose and at 0.25, 0.5, 0.75, 1, 1.5, 4, 8, 12, 24 hr after drug administration. Plasma was collected by the centrifugation (1,200 g, 10 min) of blood with heparin (100 U/mL).

Sequence of Frizzled1-GFP (Q08463 69-641): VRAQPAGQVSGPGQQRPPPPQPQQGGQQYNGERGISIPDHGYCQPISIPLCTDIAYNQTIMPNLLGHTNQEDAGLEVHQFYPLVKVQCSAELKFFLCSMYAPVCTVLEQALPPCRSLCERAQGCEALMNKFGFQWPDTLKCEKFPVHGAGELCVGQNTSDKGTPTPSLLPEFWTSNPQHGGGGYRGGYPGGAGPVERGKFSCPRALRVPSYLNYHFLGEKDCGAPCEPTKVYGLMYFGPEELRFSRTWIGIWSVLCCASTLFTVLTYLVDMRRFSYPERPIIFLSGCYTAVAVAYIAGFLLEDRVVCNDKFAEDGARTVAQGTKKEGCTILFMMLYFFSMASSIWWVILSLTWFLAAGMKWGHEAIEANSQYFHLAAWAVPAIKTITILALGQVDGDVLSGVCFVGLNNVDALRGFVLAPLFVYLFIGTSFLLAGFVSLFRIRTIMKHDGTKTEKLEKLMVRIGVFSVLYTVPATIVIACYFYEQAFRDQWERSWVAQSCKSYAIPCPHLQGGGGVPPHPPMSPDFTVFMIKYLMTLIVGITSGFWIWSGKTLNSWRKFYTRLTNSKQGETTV

For O=C(Nc1ccc([N+](=O)[O-])cc1Cl)c1cc(Cl)ccc1O [niclosamide], which “concentration with significant increase in the number of internalized receptors” value (Frizzled1-GFP) is on record?
Its value is 1 to 2 µM.

And the IC50 (Dishevelled-2)?
The IC50 was ~1000 nM.

What about the “concentration showing anti-proliferation effect” value (HT29 cells; 0.4, 2, 10 μM tested, 72 hr) of the same molecule?
Its value is 10 µM.

What about the “% proliferation over time” value (HT29 cells; 0.4, 2, 10 μM, 24-96 hr) of the same molecule?
The value was “insensitive”.

What about the “cytotoxic effect compared with 10 μM oxaliplatin” value (CaCO2 cells; 2 μM, 72 hr) of the same molecule?
Its value is “stronger cytotoxic effect”.

What about the “proliferation (MTT, OD 562 nm)” value (CaCO2 cells; 0.4, 2, 10 μM, 72 hr) of the same molecule?
Its value is “less proliferation”.

And the “% proliferation over time” value (CaCO2 cells; 0.4, 2, 10 μM, 24-96 hr)?
The value was “sensitive”.

What about the IC50 (CaCO2 cells; read-out: IC50 of niclosamide (MTT)) of the same molecule?
Its IC50 is 1000 nM.

What about the IC50 (CaCO2 cells; read-out: IC50 of niclosamide (MTT) with oxaliplatin) of the same molecule?
Its IC50 is 500 nM.

And the “concentration with steep increase of annexin V-positive cells” value (CRC119 tumor cells)?
Its value is 1 µM.

And the Cmax (in vivo)?
Its Cmax is 894 ng/mL.

And the “Elimination rate (z-lambda)” value (in vivo)?
Its value is 0.217 h⁻¹.

And the Tmax (in vivo)?
Its Tmax is 15 min.

And the concentration at 1.5 hr (in vivo)?
Its concentration at 1.5 hr is 77.6 ng/mL.

What about the half-life (in vivo) of the same molecule?
The half-life was 192 min.
